Source: US20110086818A1, “METHODS, COMPOSITIONS, AND KITS FOR TREATING PAIN AND PRURITUS” (priority 2008, published 2011)

What was measured:
[1] = test system: voltage-dependent sodium channels; experiment: whole-cell voltage clamp recordings of sodium current in small (capsaicin-sensitive) DRG neurons; format: cell-based, rat; conditions: for inhibition (decrease) of sodium current: small capsaicin-sensitive DRG neurons, 5 mM QX-314 (5-minute application), 1 μM capsaicin (1-10 minutes), alone or together, steps from −70 mV, n=25
Description: We recorded current through voltage-dependent sodium channels using whole-cell voltage clamp recordings from adult rat DRG neurons. To select for nociceptors, we recorded from small (24±5 μm; n=25) neurons and tested the neurons for the expression of TRPV1 receptors by a short (1-sec) application of 1 μM capsaicin. In 25/25 of small neurons tested, capsaicin produced a prolonged (10±3 sec) inward current (FIG. 1A, upper panel), consistent with the neurons being nociceptors. Sodium currents were elicited by depolarizing steps from a holding potential of −70 mV.
(§1) Dorsal root ganglia from 6-8 week old Sprague-Dawley rats were removed and placed into Dulbecco's Minimum Essential Medium containing 1% penicillin-streptomycin (Sigma), then treated for 90 minutes with 5 mg/ml collagenase, 1 mg/ml Dispase II (Roche, Indianapolis, Ind.) and for 7 minutes with 0.25% trypsin, followed by addition of 2.5% trypsin inhibitor. Cells were triturated in the presence of DNAase I […] (50 U), centrifuged through 15% BSA (Sigma), resuspended in 1 ml Neurobasal medium (Sigma), 10 μM AraC, NGF (50 ng/ml) and GDNF (2 ng/ml) and plated onto poly-lysine (500 μg/ml) and laminin ([…]) coated 35 mm tissue culture dishes (Becton Dickinson) at 8000-9000 per well. Cultures were incubated at 37° C., 5% carbon dioxide. Recordings were made within 48 hours after plating. Average size of small neurons chosen as likely nociceptors was 23±6 μm (n=50) and that of large neurons was 48±8 μM (n=10).
Whole-cell voltage-clamp or current-clamp recordings were made using an Axopatch 200 A amplifier (Axon Instruments, Union City, Calif.) and patch pipettes with resistances of 1-2 MΩ. For voltage-clamp recordings pipette capacitance was reduced by wrapping the shank by Parafilm or coating the shank with Sylgard (Dow Corning, Midland, Mich.). Cell capacitance was compensated for using the amplifier circuitry, and linear leakage currents subtracted using a P/4 procedure. Series resistance (usually 3-7 MO and always less than 10 MΩ) was compensated by ˜80%. Voltage clamp recordings used solutions designed to isolate sodium currents by blocking potassium and calcium currents and with reduced external sodium to improve voltage clamp. Pipette solution was 110 mM CsCl, 1 mM CaCl2, 2 mM MgCl2, 11 mM EGTA, and 10 mM HEPES, pH adjusted to 7.4 with ˜25 mM CsOH. External solution was 60 mM NaCl, 60 mM choline chloride, 4 mM KCl, 2 mM CaCl2, 1 mM MgCl2, 0.1 mM CdCl2, 15 mM tetraethylammonium chloride, 5 mM 4-aminopyridine, 10 mM glucose, and 10 mM HEPES, pH adjusted to 7.4 with NaOH. No correction was made for the small liquid junction potential (−2.2 mV).
Command protocols were generated and data digitized using a Digidata 1200 A/D interface with pCLAMP 8.2 software (Axon Instruments, Union City, Calif.). […]

[2] = test system: adult rats; experiment: intraplantar injection, thermal (radiant heat) response latency; format: in vivo, rat; conditions: QX-314 at 30 min, capsaicin at 15 and 30 min, combination 2 hours after injection, heat applied for 25 seconds
Description: (§2) FIG. 3. Intraplantar injection of capsaicin (10 μg/10 μL) together with QX-314 (2%, 10 μL) leads to a prolonged local anesthesia to mechanical (von Frey filaments) and thermal noxious stimuli. […] (*=p<0.05, n=6 for each group). […] Arrow indicates cutoff, and numbers of animals not responding to strongest stimulus is indicated for time points with largest effects. (*=p<0.05, n=6 for each group).
Similar effects were seen examining sensitivity to a standardized noxious radiant heat stimulus. […] This effect remained for 4 hours after the injection (FIG. 3B).
(§3) For intraplantar injections, rats were first habituated to handling and tests performed with the experimenter blind to the treatment. Intraplantar injections of vehicle (20% ethanol, 5% Tween 20 in saline, 10 μL) capsaicin (1 μg/μL), QX-314 (2%) or mixture of capsaicin and QX-314 into the left hindpaw were made and mechanical and thermal sensitivities determined using von Frey hairs and radiant heat respectively.

[3] = test system: rats; experiment: sciatic nerve injection, mechanical threshold (von Frey filaments); format: in vivo, rat; conditions: QX-314 0.2%, 100 μL, capsaicin 0.5 μg/μL, for 30 min after injection
Description: (§4) Motor effects were scored according to a scale of 0 (no effect; normal gait and limb placement), 1 (limb movement but with abnormal limb placement and movement) or 2 (complete loss of limb movement). […] For co-application of QX-314 and capsaicin into the para-sciatic nerve region, we injected QX-314 first, followed 10 minutes later by capsaicin, with the idea that QX-314 would be present extracellularly and ready to enter TRPV1 channels as soon as they were activated.
(§5) For sciatic nerve injections, animals were first habituated to handling for 10 days. Lidocaine (0.2% or 2%, 100 μL); QX-314 (0.2%, 100 μL) alone; capsaicin (50 μg in 100 μL) alone, or QX-314 followed by capsaicin (10 minutes interval) were injected into the area of sciatic nerve below the hip joint. Mechanical and thermal thresholds were determined using von Frey filaments and radiant heat. […] Walking, climbing, walking on the rod and placing reflex were examined. […] All experiments were done with the experimenter blinded.

[4] = test system: small DRG neurons; experiment: current clamp recording of action potentials in small nociceptive-like DRG neurons; format: cell-based, rat; conditions: QX-314 5 mM, capsaicin 1 μM
[5] = test system: rats; experiment: sciatic nerve injection, thermal (radiant heat) response latency; format: in vivo, rat; conditions: QX-314 0.2%, 100 μL, capsaicin 0.5 μg/μL, for 30 min after injection
Description: as §4, §5

[6] = test system: rats; experiment: sciatic nerve injection, motor function score and placing reflex
Description: as §4, §5

[7] = test system: adult rats; experiment: intraplantar injection, mechanical threshold for paw withdrawal (von Frey hairs); format: in vivo, rat; conditions: QX-314 10 μL of 2%, capsaicin 10 μg/10 μL, capsaicin effect at 15 and 30 minutes
Description: as §2
We next examined if the combination of capsaicin and QX-314 can reduce pain behavior in vivo. […] In three animals the paw was insensitive to even the highest value von Frey filament (57 g). The elevated mechanical threshold lasted for about three hours and then gradually returned back to basal levels by four hours (FIG. 3A).
as §3

[8] = test system: voltage-dependent sodium channels; experiment: whole-cell voltage clamp recordings of sodium current in large (capsaicin-insensitive) DRG neurons; format: cell-based, rat; conditions: large DRG neurons (>40 μm); 10-minute application; n=10
Excerpt: To test whether the ability of co-applied capsaicin and QX-314 to inhibit sodium current is selective for cells that express TRPV1 receptors, we also recorded from large DRG neurons (soma diameter >40 μm) (FIG. 1A, right). […] As for small diameter neurons, QX-314 applied alone had little or no effect on sodium current (current increased by 8±4% after a 10-minute application, n=10). Unlike small diameter neurons, capsaicin had no effect on sodium current in large diameter neurons (average increase by 3±2% after a 10-minute application, n=10).
as §1, with “Average size of small neurons chosen as likely nociceptors was 23±6 μm (n=50) and that of large neurons was 48±8 μM (n=10).” left out

[9] = hindpaw injection, acute pain-related response (flinches) and analgesia (FIG. 8); format: in vivo; conditions: injection into the hindpaw, flinches (FIG. 8)
[10] = test system: adult rats; experiment: intraplantar injection, spontaneous flinching; format: in vivo, rat; conditions: first 5 minutes after intraplantar injection; capsaicin 10 μg/10 μL, QX-314 2%
[11] = target: T1, TRPV1 receptors (Rattus norvegicus, UniProt O35433); experiment: capsaicin-evoked inward current in DRG neurons (test for expression of TRPV1 receptors); format: cell-based
T1 construct: Dorsal root ganglia from 6-8 week old Sprague-Dawley rats were removed; endogenous in cells; host or cells: primary cultured dorsal root ganglion neurons from 6-8 week old Sprague-Dawley rats
T1 sequence (O35433 whole entry): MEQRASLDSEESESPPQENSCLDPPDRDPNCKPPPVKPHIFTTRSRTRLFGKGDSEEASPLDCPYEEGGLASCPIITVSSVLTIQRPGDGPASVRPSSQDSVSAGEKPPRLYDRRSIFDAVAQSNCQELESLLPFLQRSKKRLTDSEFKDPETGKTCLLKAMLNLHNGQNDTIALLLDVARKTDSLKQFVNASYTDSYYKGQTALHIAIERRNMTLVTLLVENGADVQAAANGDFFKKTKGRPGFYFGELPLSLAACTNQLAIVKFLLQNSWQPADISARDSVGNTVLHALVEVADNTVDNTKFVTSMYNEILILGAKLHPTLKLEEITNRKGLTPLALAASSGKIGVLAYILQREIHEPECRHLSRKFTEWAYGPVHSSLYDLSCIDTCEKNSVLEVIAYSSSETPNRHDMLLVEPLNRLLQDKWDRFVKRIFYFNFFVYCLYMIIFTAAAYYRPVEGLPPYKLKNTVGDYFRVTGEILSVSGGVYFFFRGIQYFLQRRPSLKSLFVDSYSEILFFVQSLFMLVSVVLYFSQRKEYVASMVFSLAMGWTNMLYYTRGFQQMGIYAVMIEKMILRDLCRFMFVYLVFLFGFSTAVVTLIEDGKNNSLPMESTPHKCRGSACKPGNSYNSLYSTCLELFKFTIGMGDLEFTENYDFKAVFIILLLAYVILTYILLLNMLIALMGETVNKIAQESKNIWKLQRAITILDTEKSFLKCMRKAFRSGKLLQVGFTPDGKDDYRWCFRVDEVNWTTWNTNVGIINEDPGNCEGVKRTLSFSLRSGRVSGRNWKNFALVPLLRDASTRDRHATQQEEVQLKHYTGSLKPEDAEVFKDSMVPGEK
Description: QX-314 (5 mM), capsaicin (1 μM or 500 nM), or their combination was applied using custom-designed multibarrel fast drug delivery system placed about 200-250 μm from the neuron. Solution exchange was complete in less than a second.

[12] = small neurons, 1-sec application of 1 μM capsaicin

Compound	effect of external application on sodium channels ([1]; external QX-314 alone)	inhibition (decrease) of sodium current [1]	effect on thermal response latency (noxious radiant heat) [2]	effect on mechanical threshold [3]	effect on action potential generation / amplitude [4]	effect on thermal response latency [5]	effect on motor function ([6]; rat, in vivo)	effect on mechanical threshold for withdrawal response [7]	increase of sodium current [8]	duration of acute pain-related response following injection [9]	flinches in 5 min [10]	mean motor score ([6]; scale 0-2, sciatic injection, lidocaine 2% at 30 minutes, capsaicin 0.5 μg/μL, 100 μL, QX-314 0.2%, 100 μL followed 10 minutes later by capsaicin)	inward current in large DRG neurons ([11]; large DRG neurons, soma diameter >40 μm, 10 of 10)	duration of prolonged inward current [11, 12]	small neurons tested in which an inward current was produced [11, 12]	inhibition of sodium current ([1]; small dorsal root ganglion neurons, eugenol alone (FIG. 5))	duration of complete loss of tactile stimulus-evoked placing reflex ([6]; rat, in vivo)	time to full recovery of sensory and motor deficits ([6]; rat, in vivo)
CC[N+](CC)(CC)CC(=O)Nc1c(C)cccc1C [QX-314]	no effect	3±0.5%	transiently reduced the thermal response latency	no significant effect	had no effect	no significant effect	no effect on motor function	no significant effect	8±4%									
COc1cc(CNC(=O)CCCC/C=C/C(C)C)ccc1O [capsaicin]		31±9%	reduced	reduced	reduced the action potential amplitude	reduced		significantly reduced the mechanical threshold	3±2%	approximately 15 min	40±6 flinches	0.7±0.2	did not elicit an inward current	10 ± 3 s	25/25			
C=CCc1ccc(O)c(OC)c1 [eugenol, 2-methoxy-4-(2-propenyl)phenol]																10-20%		
CCN(CC)CC(=O)Nc1c(C)cccc1C [lidocaine]							complete paralysis of the lower limb										at least 30 minutes	≤ 45 min
